Reference: ChEMBL document CHEMBL5729699, “Polypeptide compound, pharmaceutical composition, preparation method and application thereof” (2023)

Key:
Cytochrome P450 2C19 = Cytochrome P450 2C19 (Homo sapiens, UniProt P33261); test: (§1) Inhibition of Cytochrome P450 Oxidase: The human liver microsomes (0.253 mg/mL protein) containing cytochrome P450, test compounds (0.05-50 μM), CYPs substrates (10 μM […], 5 μM diclofenac, 30 μM mephenytoin, 5 μM dextromethorphan hydrobromide, 2 μM midazolam), 1.0 mM NADP were incubated at 37° C. for 10 minutes. Naflavone, sulfafenpyrazole, N-3-benzylnivan, quinidine, and ketoconazole were used as reference inhibitors.
Cytochrome P450 1A2 = molecular target: T1, Cytochrome P450 1A2 (Homo sapiens, UniProt P05177); test: as §1
T1 sequence (P05177 whole entry): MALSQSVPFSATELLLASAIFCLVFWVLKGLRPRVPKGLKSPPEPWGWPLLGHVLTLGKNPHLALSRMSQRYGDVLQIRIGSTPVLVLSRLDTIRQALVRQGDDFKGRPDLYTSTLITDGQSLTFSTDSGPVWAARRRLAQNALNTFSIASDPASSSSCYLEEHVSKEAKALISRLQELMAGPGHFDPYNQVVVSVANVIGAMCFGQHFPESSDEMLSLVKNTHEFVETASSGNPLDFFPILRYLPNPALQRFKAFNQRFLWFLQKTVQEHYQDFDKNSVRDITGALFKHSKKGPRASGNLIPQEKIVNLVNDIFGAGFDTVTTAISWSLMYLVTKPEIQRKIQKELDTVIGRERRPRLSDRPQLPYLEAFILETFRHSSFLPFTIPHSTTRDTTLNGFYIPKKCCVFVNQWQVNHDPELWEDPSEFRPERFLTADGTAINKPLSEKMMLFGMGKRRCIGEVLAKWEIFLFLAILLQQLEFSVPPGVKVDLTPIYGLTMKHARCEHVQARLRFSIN

Cytochrome P450 2D6 = Cytochrome P450 2D6 (Homo sapiens, UniProt P10635); test: as §1
Cytochrome P450 2C9 = Cytochrome P450 2C9 (Homo sapiens, UniProt P11712); test: as §1
Cytochrome P450 3A4 = Cytochrome P450 3A4 (Homo sapiens, UniProt P08684); test: as §1
[1] = molecular target: Kappa-type opioid receptor (Homo sapiens, UniProt P41145); test: Agonistic activity of the kappa-opioid receptors: Forskolin can stimulate the release of cAMP from HEK293 cells with high expression of human κ (or μ, or δ)-opioid receptors. […] The efficacy of the compounds of the invention as κ-opioid receptor agonists was determined by measuring the ability of the compounds of Examples to inhibit adenylate cyclase activity.Cell culture: The HEK293 cell line highly expressing human κ (or μ, or δ)-opioid receptor were cultured in DMEM medium containing 10% FBS.Stimulation: the test compound was 4-fold diluted in a gradient manner to obtain 10 concentrations, and 50 nl of each was transferred to a 384-well plate, and then 10 nl Forskolin was added; the cells were digested, re-suspended, and counted; and then 10 μl of cell suspension (5×10^5 cell/mL) was added, and the cells were mixed gently, and incubated at 23° C. for 60 minutes.Detection: cAMP Assay Kit (Cisbio) was used, cAMPD2 and Anti-cAMP conjugate were added, and the resultant mixture was incubated for 1 h at room temperature. The plate was read using envision (Perkin Elmer) and EC50 was obtained by means of fitting with a four-parameter equation.; type: cell-based
Kappa-type opioid receptor, sequence (P41145 whole entry): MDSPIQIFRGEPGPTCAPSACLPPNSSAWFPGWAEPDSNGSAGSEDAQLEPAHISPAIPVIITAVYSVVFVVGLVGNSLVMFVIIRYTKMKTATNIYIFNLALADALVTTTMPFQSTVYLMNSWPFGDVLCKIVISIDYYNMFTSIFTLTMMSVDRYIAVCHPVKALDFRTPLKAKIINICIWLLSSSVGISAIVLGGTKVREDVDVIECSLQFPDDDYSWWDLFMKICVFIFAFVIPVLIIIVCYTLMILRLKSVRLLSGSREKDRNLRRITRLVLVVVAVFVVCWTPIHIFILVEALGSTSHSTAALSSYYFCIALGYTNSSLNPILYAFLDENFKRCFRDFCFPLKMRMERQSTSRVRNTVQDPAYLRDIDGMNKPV

Cytochrome P450 2C19, sequence (P33261 whole entry): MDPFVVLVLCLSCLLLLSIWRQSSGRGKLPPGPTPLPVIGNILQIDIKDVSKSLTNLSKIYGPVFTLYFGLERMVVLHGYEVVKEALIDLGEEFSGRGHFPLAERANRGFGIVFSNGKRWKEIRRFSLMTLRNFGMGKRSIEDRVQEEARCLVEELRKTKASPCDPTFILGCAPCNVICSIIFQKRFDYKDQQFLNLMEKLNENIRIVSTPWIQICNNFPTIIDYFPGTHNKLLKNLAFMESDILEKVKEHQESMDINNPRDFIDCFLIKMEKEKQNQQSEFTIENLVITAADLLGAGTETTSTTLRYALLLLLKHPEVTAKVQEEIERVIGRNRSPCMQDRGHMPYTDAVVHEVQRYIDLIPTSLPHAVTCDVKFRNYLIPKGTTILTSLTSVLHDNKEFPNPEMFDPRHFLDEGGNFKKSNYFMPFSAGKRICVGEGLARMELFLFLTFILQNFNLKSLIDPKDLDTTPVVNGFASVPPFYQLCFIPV
Cytochrome P450 2D6, sequence (P10635 whole entry): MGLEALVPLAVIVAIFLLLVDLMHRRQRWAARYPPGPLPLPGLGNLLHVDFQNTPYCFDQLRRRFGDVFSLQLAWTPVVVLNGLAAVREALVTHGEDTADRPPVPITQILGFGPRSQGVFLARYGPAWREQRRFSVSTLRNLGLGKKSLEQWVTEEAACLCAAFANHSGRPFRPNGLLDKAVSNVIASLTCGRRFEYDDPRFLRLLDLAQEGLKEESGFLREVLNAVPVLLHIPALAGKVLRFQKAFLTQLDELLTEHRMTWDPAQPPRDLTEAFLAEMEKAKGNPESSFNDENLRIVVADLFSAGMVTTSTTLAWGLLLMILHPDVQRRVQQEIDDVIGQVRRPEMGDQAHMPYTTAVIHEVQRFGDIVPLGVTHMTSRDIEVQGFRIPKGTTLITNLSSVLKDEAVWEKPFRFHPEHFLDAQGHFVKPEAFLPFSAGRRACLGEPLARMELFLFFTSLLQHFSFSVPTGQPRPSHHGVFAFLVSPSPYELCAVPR
Cytochrome P450 2C9, sequence (P11712 whole entry): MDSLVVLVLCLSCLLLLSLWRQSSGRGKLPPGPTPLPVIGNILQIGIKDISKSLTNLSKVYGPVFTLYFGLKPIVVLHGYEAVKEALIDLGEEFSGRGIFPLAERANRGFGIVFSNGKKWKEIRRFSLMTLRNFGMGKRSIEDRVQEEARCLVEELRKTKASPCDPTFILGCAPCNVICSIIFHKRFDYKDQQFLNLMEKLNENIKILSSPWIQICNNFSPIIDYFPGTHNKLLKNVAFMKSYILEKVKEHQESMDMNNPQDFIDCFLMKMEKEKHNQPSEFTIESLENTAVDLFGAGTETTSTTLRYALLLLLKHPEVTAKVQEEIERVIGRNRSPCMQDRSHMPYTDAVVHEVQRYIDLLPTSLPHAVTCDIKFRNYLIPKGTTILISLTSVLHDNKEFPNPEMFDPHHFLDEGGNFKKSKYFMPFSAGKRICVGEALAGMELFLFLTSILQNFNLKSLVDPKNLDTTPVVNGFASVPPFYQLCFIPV
Cytochrome P450 3A4, sequence (P08684 whole entry): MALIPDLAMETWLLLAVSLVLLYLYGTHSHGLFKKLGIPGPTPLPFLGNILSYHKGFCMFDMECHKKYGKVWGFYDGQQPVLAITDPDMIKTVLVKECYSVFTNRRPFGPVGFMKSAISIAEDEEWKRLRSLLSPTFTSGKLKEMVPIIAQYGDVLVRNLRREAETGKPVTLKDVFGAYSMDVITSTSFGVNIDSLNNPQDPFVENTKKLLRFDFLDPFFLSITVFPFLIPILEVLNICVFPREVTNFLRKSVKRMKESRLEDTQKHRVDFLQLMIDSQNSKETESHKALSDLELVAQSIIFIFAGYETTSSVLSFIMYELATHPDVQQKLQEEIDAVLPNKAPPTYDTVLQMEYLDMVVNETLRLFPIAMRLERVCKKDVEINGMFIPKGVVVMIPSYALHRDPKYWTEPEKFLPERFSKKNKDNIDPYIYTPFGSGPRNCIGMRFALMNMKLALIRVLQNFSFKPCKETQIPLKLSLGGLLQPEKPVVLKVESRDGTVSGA

Row | SMILES | IC50 (Cytochrome P450 2C19) [µM] | IC50 (Cytochrome P450 1A2) [µM] | IC50 (Cytochrome P450 2D6) [µM] | IC50 (Cytochrome P450 2C9) [µM] | IC50 (Cytochrome P450 3A4) [µM] | EC50 [1] [pM]
1 | CC(C)C[C@@H](NC(=O)[C@@H](Cc1ccccc1)NC(=O)[C@H](N)Cc1ccccc1)C(=O)N[C@H](CCCCN)C(=O)N1CC[C@@H](B(O)O)C1 | > 50 | > 50 | > 50 | > 50 | > 50 | 
2 | CC(C)C[C@@H](NC(=O)[C@@H](Cc1ccccc1)NC(=O)[C@H](N)Cc1ccccc1)C(=O)N[C@H](CCCCN)C(=O)N1CCC(N)(B(O)O)CC1 | > 50 | > 50 | > 50 | > 50 | > 50 | 
3 | CC(C)C[C@@H](NC(=O)[C@@H](Cc1ccccc1)NC(=O)[C@H](N)Cc1ccccc1)C(=O)N[C@H](CCCCN)C(=O)N1CC=C(B(O)O)C1 | > 50 | > 50 | > 50 | > 50 | > 50 | 
4 | CC(C)C[C@@H](NC(=O)[C@@H](Cc1ccccc1)NC(=O)[C@H](N)Cc1ccccc1)C(=O)N[C@H](CCCCN)C(=O)N1CCC[C@H]1B(O)O | > 50 | > 50 | > 50 | > 50 | > 50 | 1
